Measured values as given in patent publication US10993957B2 (NuCana plc, priority 2011, dated 2021).
Where two headings read alike, the source gives them in different places.

What was measured:
HeLa = assay: Cytostatic assay, HeLa cells; assay type: cell-based; settings: for CC50: read-out: CC50 HeLa; for IC50: read-out: IC50 HeLa
Description: (§1) The cell lines employed were L1210/0 (a leukemia cell line), FM3A/0 (a breast cancer cell line), Cem/0 (an acute lymphoblastic leukemia cell line) and HeLa (a cervical cell line).

L1210/TK^− = assay: Cytostatic assay, thymidine kinase-deficient L1210/TK^− cells; assay type: cell-based, murine
Cem/TK^− = assay: Cytostatic assay, thymidine kinase-deficient CEM/TK^− cells; assay type: cell-based, human; settings: for CC50: read-out: CC50 Cem/TK^−; for IC50: read-out: IC50 Cem/TK^−
L1210/0 = assay: Cytostatic assay, L1210/0 cells; assay type: cell-based, murine
Description: as §1

HeLa/TK^− = assay: Cytostatic assay, HeLa/TK^− cells; assay type: cell-based; settings: for CC50: read-out: CC50 HeLa/TK^−; for IC50: read-out: IC50 HeLa/TK^−
Description: as §1

L1210.Hyor = assay: Cytostatic assay, Mycoplasma hyorhinis-infected L1210 cells; settings: for % Retention: CC50 L1210 × 100 ÷ CC50 L1210/Hyor; for CC50: L1210, read-out: CC50 L1210/Hyor
Description: Murine leukaemia L1210/0 and human T-lymphocyte CEM/0 cells were obtained from the American Type Culture Collection (ATCC) (Rockville, Md.). Human glioblastoma U87 cells were kindly provided by Dr. E. Menue (Institut Pasteur, Paris, France). […] S. Eriksson (currently at Uppsala University, Uppsala, Sweden) and Prof A. Karlsson (Karolinska Institute, Stockholm, Sweden). […] All cells were maintained in Dulbecco's modified Eagle's medium (DMEM) (Invitrogen, Carlsbad, Calif.) with 10% foetal bovine serum (FBS) (Biochrom AG, Berlin, Germany), 10 mM Hepes and 1 mM Sodium Pyruvate (Invitrogen). Cells were grown at 37° C. in a humidified incubator with a gas phase of 5% CO2.
Monolayer cells (U87 and U87.Hyor) were seeded in 48-well microtiter plates (Nunc™, Roskilde, Denmark) at 10,000 cells/well. After 24 hours, an equal volume of fresh medium containing the test compounds was added. On day 5, cells were trypsinized and counted in a Coulter counter (Analis, Suarlée, Belgium). Suspension cells (L1210/0, L1210/TK^−, L1210.Hyor, CEM/0, CEM/TK^−) were seeded in 96-well microtiter plates (Nunc™) at 60,000 cells/well in the presence of a given amount of the test compounds. The cells were allowed to proliferate for 48 h (L1210) or 72 hours (CEM) and were then counted in a Coulter counter.
Samples were also assayed for their % retention of activity in mycoplasma infected cells.
The L1210/0 cell cultures were infected with the mycoplasma species M. hyorhinis (cells designated: L1210.Hyor).

Cem/0 = assay: Cytostatic assay, CEM/0 cells; assay type: cell-based, human; settings: for CC50: read-out: CC50 Cem/0; for IC50: read-out: IC50 Cem/0
Description: as §1

[1] = Mus musculus, L1210, read-out: IC50 L1210.Hyor
[2] = Mus musculus, L1210, Table 1, read-out: CC50 L1210/TK^−
[3] = Mus musculus, L1210, Table 6, read-out: IC50 L1210/TK^−
[4] = Homo sapiens, CEM-TK(-), Table 1
[5] = Homo sapiens, CEM-TK(-), Table 6
[6] = Mus musculus, L1210/0, Table 1, read-out: CC50 L1210/0
[7] = Mus musculus, L1210/0, Table 2, mycoplasma negative cells, read-out: CC50 L1210
[8] = Mus musculus, L1210/0, Table 6, read-out: IC50 L1210/0
[9] = Mus musculus, L1210/0, Table 7, read-out: IC50 L1210/0
[10] = Homo sapiens, CCRF-CEM, Table 1
[11] = Homo sapiens, CCRF-CEM, Table 6
[12] = Table 6, read-out: IC50 L1210/TK^−
[13] = Table 6, read-out: IC50 L1210/0
[14] = Table 7, read-out: IC50 L1210/0
[15] = read-out: IC50 L1210.Hyor, Table 7

Row | SMILES | % Retention (L1210.Hyor) | CC50 (L1210.Hyor; Mus musculus) | IC50 (L1210.Hyor; [1]) | IC50(L1210.Hyor)/IC50(L1210/0) (L1210.Hyor; Table 7) | CC50 (HeLa; Homo sapiens, HeLa, Table 1) | IC50 (HeLa; Homo sapiens, HeLa, Table 6) | CC50 (L1210/TK^−; [2]) | IC50 (L1210/TK^−; [3]) | CC50 (Cem/TK^−; [4]) | IC50 (Cem/TK^−; [5]) | CC50 (L1210/0; [6]) | CC50 (L1210/0; [7]) | IC50 (HeLa; Table 6) | IC50 (L1210/TK^−; [12]) | IC50 (Cem/TK^−; Table 6) | IC50 (L1210/0; [13]) | IC50 (L1210/0; [14]) | IC50 (HeLa/TK^−; Table 6) | IC50 (L1210.Hyor; [15]) | IC50 (Cem/0; Table 6) | also measured
1 | O=C(OCc1ccccc1)C1CCCN1P(=O)(OC[C@H]1O[C@@H](n2cc(F)c(=O)[nH]c2=O)CC1O)Oc1cccc2ccccc12 (stereo partly drawn) [CPF 577, 5-Fluoro-2′-deoxyuridine-5′-O-[1-naphthyl(benzoxy-L-prolinyl)] phosphate] | 36% | 630 nM | 650 ± 70 nM | 2.5 |  |  |  |  |  |  |  |  |  |  |  |  |  |  |  |  | CC50 (HeLa; Homo sapiens, HeLa): 1200 nM; IC50 (HeLa; Homo sapiens, HeLa): 1200 nM; CC50 (L1210/TK^−; Mus musculus, L1210, read-out: CC50 L1210/TK^−): 25000 ± 8000 nM; IC50 (L1210/TK^−; Mus musculus, L1210, read-out: IC50 L1210/TK^−): 25000 ± 8000 nM; CC50 (Cem/TK^−; Homo sapiens, CEM-TK(-)): 32000 ± 9000 nM; IC50 (Cem/TK^−; Homo sapiens, CEM-TK(-)): 35000 ± 9000 nM; CC50 (L1210/0; Mus musculus, L1210/0, read-out: CC50 L1210): 230 nM; CC50 (L1210/0; Mus musculus, L1210/0, read-out: CC50 L1210/0): 210 ± 80 nM; IC50 (L1210/0; Mus musculus, L1210/0, read-out: IC50 L1210/0, Table 6): 210 ± 80 nM; IC50 (L1210/0; Mus musculus, L1210/0, read-out: IC50 L1210/0, Table 7): 260 ± 55 nM; CC50 (HeLa/TK^−; Homo sapiens, HeLa): 26000 ± 1000 nM; IC50 (HeLa/TK^−; Homo sapiens, HeLa): 26000 ± 1000 nM; CC50 (Cem/0; Homo sapiens, CCRF-CEM): 890 ± 350 nM; IC50 (Cem/0; Homo sapiens, CCRF-CEM): 890 ± 350 nM
2 | C[C@H](NP(=O)(OC[C@H]1O[C@@H](n2cc(F)c(=O)[nH]c2=O)CC1O)Oc1cccc2ccccc12)C(=O)OCCC(C)(C)C (stereo partly drawn) [CPF 585, 5-Fluoro-2′-deoxyuridine-5′-O-[1-naphthyl(3,3-dimethyl-1-butoxy-L-alaninyl)] phosphate] | 41% | 51 nM | 32 ± 8.8 nM | 2.7 | 78 ± 18 nM | 78 ± 18 nM | 62 ± 9 nM | 62 ± 9 nM | 190 ± 40 nM | 190 ± 40 nM | 16 ± 6 nM | 21 nM |  |  |  |  |  |  |  |  | IC50 (L1210/0; [8]): 16 ± 6 nM; IC50 (L1210/0; [9]): 12 ± 1.8 nM; CC50 (HeLa/TK^−; Homo sapiens, HeLa, Table 1): 1300 ± 900 nM; IC50 (HeLa/TK^−; Homo sapiens, HeLa, Table 6): 1300 ± 900 nM; CC50 (Cem/0; [10]): 53 ± 21 nM; IC50 (Cem/0; [11]): 53 ± 21 nM
3 | CCCCCOC(=O)C(NP(=O)(OCC1OC(n2cc(F)c(=O)[nH]c2=O)CC1O)Oc1cccc2ccccc12)C(C)CC (mixture of isomers) [Nap Pnt Ile] |  |  |  | 1.67 |  |  |  |  |  |  |  |  | 300 ± 20 nM | 12000 ± 2000 nM | 17000 ± 1000 nM | 220 ± 120 nM | 420 ± 21 nM | 11000 ± 1000 nM | 700 ± 74 nM | 460 ± 110 nM | 
4 | C[C@H](NP(=O)(OC[C@H]1O[C@@H](n2cc(F)c(=O)[nH]c2=O)C[C@@H]1O)Oc1ccccc1)C(=O)OC1CCCCC1 (stereo partly drawn) [CPF 508, 5-Fluoro-2′deoxyuridine-5′-O-[phenyl (cyclohexoxy-L-alaninyl)] phosphate] |  |  |  | 1.25 |  |  |  |  |  |  |  |  | 180 ± 50 nM | 140 ± 20 nM | 1200 ± 10 nM | 39 ± 1 nM | 32 ± 5 nM | 5900 ± 400 nM | 40 ± 16 nM | 170 ± 70 nM | 
5 | CCCCCOC(=O)C(CCSC)NP(=O)(OCC1OC(n2cc(F)c(=O)[nH]c2=O)CC1O)Oc1ccccc1 (stereo not drawn) [Ph Pnt Met] |  |  |  | 3.2 |  |  |  |  |  |  |  |  | 150 nM | 2200 ± 500 nM | 13000 ± 1000 nM | 110 ± 60 nM | 130 ± 7.8 nM | 7100 ± 1200 nM | 410 ± 210 nM | 350 ± 130 nM | 
6 | C[C@H](NP(=O)(OC[C@H]1O[C@@H](n2cc(F)c(=O)[nH]c2=O)CC1O)Oc1cccc2ccccc12)C(=O)OC1CCC1 (stereo partly drawn) [CPF 578, 5-Fluoro-2′-deoxyuridine-5′-O-[1-naphthyl-(cyclobutoxy-L-alaninyl)]phosphate] | 31% | 48 nM | 24 ± 0.14 nM | 2.2 | 69 ± 3 nM | 69 ± 3 nM | 88 ± 38 nM | 88 ± 38 nM | 1500 ± 300 nM | 1500 ± 300 nM | 14 ± 3 nM | 15 nM |  |  |  |  |  |  |  |  | IC50 (L1210/0; [8]): 14 ± 3 nM; IC50 (L1210/0; [9]): 11 ± 1.4 nM; CC50 (HeLa/TK^−; Homo sapiens, HeLa, Table 1): 1500 ± 600 nM; IC50 (HeLa/TK^−; Homo sapiens, HeLa, Table 6): 1500 ± 600 nM; CC50 (Cem/0; [10]): 73 ± 18 nM; IC50 (Cem/0; [11]): 73 ± 18 nM
